Data reported in patent publication US20240165135A1, “COMPOSITIONS AND METHODS FOR THE TREATMENT OF CANCER” (The State of Israel, Ministry of Agriculture & Rural …, priority 2021, published 2024).

Tests used:
Format in all cases: cell-based, Human
U87 GBM cells = test: XTT cell viability assay on U87; details: 48 hours; Doxorubicin up to 50 μg/mL
Description: Cell cultures—Human glioblastoma A172 (ATCC®CRL-1620™) was cultured in DMEM (01-055-1A, Biological Industries, Israel) and U87MG (U87; ATCC®HTB-14™) in EMEM (01-058-1A; Biological Industries, Israel). Both media were supplemented with 10% fetal bovine serum (FBS, 04-127-1A, Biological Industries, Israel), 1% Pen-Strep, 1% L-Glutamine and 0.02% plasmocin (i.e., complete medium). Cells were incubated at 37° C. in a humidified atmosphere containing 5% CO2—95% air. Serum free media (SFM) was composed of DMEM/F12 (01-170-1A; Biological Industries, Israel), including all the supplements above except for FBS. Neurosphere media for A172 was composed of SFM with 2% B-27; Neurosphere media for U87 was serum-free EMEM without B27. For Glioblastoma stem cells (GSCs) cultures all human materials were used in accordance with the policies of the Henry Ford Hospital Institutional Review Board. Generation of GSCs from fresh GBM specimens and their characterization have been recently described. […]
Cell viability assays—Cells were seeded in 96-well plates at density of 2×10^4 per well (100 μL/well) in SFM (for A172) or complete medium (for U87) and were incubated at 37° C. overnight to allow attachment. […] Absorbance was recorded by a Synergy H1 hybrid reader photometer (BioTek) at 490 nm with 650 nm of reference wavelength. […]

A172 cells [1] = test: Apoptosis assay, Annexin V-FITC and PI, FACS, A172; details: 48 hours, F4-SM 10 μg/mL, F5-SM 10 μg/mL, Doxo 0.5 μg/mL
Description: Apoptosis assay—Apoptosis for the A172 cell line was assessed using MEBCYTO Apoptosis Kit with Annexin V-FITC and PI (MBL, Enco, 4700). Staining was carried out according to manufacturer's instructions. In brief, cells were seeded in a 6-well TC plate, at a density of 4×10^5 cells in 2 mL of SFM per well. 24 hours following seeding, cells were treated with the indicated treatments in complete medium for 48 hours. Following incubation, cells were harvested using trypsin and centrifuged for 5 minutes at 1600 rpm. Cell pellets were resuspended and washed twice with 1 mL of PBS. The cells in each sample were resuspended in 85 μL of Annexin binding buffer. Cells were stained using 10 μL of Annexin V-FITC solution and 5 μL of propidium iodide (PI) working solution followed by incubation in the dark at room temperature for 15 minutes. Then 400 μL of Annexin V binding buffer was added to each tube and flow cytometry was performed using a Gallios flow cytometer (FACS). Cells were considered apoptotic if they were Annexin V+/PI− (early apoptosis) or Annexin V+/PI+ (late apoptosis). Live cells were defined as Annexin V−/PI−, and Annexin V−/PI+ as necrosis.

A172 cells [2] = test: Cell cycle analysis, PI staining, FACS, A172; details: 24 hours; SM 10 μg/mL, Doxo 0.5 μg/mL; control 10.2%
Description: Cell cycle analysis—A172 cells were seeded in 6-well TC plate at a concentration of 4×10^5 cells in 2 mL of SFM per well. Following 24 hours incubation, cells were treated with indicated treatments in complete medium for 24 hours. Methanol and doxorubicin were used as negative and positive controls, respectively. Cells were harvested and centrifuged for 5 minutes at 1600 rpm. Cell pellets were washed once with 1 mL of PBS and fixed with 70% cold ethanol overnight at −20° C. The fixed cells were washed twice with 1 mL of PBS and stained with 250 μL of PI solution (50 μg/mL) containing RNase A (100 μg/mL) for 30 minutes in dark conditions. 250 μL PBS was added to each tube and the cells were analyzed using FACS.

A172 cells [3] = test: Scratch-wound assay, A172 cell migration; details: 36 hours; F4 20, F4-SM 11.5, F5 20, F5-SM 11.5, Doxo 0.5 μg/mL
Description: Scratch-wound assay—A172 cells were seeded in a 96-well plate at a density of 2×10^4 per well in 100 μL of complete medium. Following 24 hours, cells in each well were scratched perpendicularly across the center of the well with a 200 μL pipette tip to produce a cell-free area for investigating the ability of the cells to migrate and close the gap under different treatments. Immediately following scratching, 100 μL of treatment solution was added. Photos were taken by a CARL ZEISS inverted microscope coupled with a camera at 0, 14, 20, and 36 hours following scratching, and the gap area was measured using ImageJ (version 1.53a). The scratch area, indicated by cells migrated into the scratch was calculated as percent of scratch area at time x from time 0: […]

A172 cells [4] = test: Transwell assay, A172 cell invasion; details: 24 hours; F4 12 μg/mL, F5 10 μg/mL, Doxo 0.5 μg/mL
Description: Transwell assay—Cells were seeded in the upper chamber of a 24-well plate containing insert with an 8-μm pore size membrane (BD, Falcon Cat #353097), at a density of 5×10^4 in 250 μL complete medium and were incubated at 37° C. for 60 minutes to recover. Following, cells were treated and incubated for 24 hours followed by viability test with resazurin (AR002, R&D Systems, USA). The inserts were taken out of the medium, the inner part was wiped using a cotton swab to remove the detached cells. The inserts were transferred into a new 24-well plate, fixated using 70% ethanol for 10 minutes and dried for 50 minutes, followed by staining in 400 μL of 0.2% crystal violet, washing with PBS, and drying for 5 minutes. Cells stained underneath the membrane were counted in inverted microscope in 3-5 different fields.

Question: `COc1cccc2c1C(=O)c1c(O)c3c(c(O)c1C2=O)C[C@@](O)(C(=O)CO)C[C@@H]3O[C@H]1C[C@H](N)[C@H](O)[C@H](C)O1` [Doxorubicin] was tested. Which “activity on the U87 cell line” value (U87 GBM cells) did it give?
Answer: only moderately active on this cell line

Question: What about the necrotic cells (A172 cells [1]; methanol control 3.4%) of the same compound?
Answer: 23.8%

Question: And the cell apoptosis (A172 cells [1]; vehicle control 8.0%)?
Answer: 60.6%

Question: And the “percentage of cells in the G2-M phase” value (A172 cells [2])?
Answer: 11.6%

Question: What about the “inhibition of cell migration in comparison to the vehicle control” value (A172 cells [3]) of the same compound?
Answer: 28.8%

Question: And the “reduction of cell invasion relative to vehicle control” value (A172 cells [4])?
Answer: 22.5%
